Measured values from ChEMBL document CHEMBL3991601, “The target landscape of clinical kinase drugs” (Science, 2017).
The source made the active and inactive calls.

Key:
[1] = biological target: Cyclin-dependent kinase 4 (Homo sapiens, UniProt P11802)
[2] = biological target: T1, Serine/threonine-protein kinase STK11 (Homo sapiens, UniProt Q15831)
T1 sequence (Q15831 whole entry): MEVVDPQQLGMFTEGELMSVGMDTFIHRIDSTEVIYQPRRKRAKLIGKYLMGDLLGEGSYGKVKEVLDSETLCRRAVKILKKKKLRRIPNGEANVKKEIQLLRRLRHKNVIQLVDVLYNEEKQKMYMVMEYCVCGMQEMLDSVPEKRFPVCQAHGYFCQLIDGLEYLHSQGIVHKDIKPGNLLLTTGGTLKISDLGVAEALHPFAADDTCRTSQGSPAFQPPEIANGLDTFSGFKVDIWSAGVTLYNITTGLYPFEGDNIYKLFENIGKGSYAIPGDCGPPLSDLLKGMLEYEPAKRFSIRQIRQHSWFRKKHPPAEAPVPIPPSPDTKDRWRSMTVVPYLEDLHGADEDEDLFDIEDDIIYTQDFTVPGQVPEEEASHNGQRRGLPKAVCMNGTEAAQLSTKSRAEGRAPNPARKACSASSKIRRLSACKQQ

Ephrin type-B receptor 2 = biological target: T2, Ephrin type-B receptor 2 (Homo sapiens, UniProt P29323)
T2 sequence (P29323 whole entry): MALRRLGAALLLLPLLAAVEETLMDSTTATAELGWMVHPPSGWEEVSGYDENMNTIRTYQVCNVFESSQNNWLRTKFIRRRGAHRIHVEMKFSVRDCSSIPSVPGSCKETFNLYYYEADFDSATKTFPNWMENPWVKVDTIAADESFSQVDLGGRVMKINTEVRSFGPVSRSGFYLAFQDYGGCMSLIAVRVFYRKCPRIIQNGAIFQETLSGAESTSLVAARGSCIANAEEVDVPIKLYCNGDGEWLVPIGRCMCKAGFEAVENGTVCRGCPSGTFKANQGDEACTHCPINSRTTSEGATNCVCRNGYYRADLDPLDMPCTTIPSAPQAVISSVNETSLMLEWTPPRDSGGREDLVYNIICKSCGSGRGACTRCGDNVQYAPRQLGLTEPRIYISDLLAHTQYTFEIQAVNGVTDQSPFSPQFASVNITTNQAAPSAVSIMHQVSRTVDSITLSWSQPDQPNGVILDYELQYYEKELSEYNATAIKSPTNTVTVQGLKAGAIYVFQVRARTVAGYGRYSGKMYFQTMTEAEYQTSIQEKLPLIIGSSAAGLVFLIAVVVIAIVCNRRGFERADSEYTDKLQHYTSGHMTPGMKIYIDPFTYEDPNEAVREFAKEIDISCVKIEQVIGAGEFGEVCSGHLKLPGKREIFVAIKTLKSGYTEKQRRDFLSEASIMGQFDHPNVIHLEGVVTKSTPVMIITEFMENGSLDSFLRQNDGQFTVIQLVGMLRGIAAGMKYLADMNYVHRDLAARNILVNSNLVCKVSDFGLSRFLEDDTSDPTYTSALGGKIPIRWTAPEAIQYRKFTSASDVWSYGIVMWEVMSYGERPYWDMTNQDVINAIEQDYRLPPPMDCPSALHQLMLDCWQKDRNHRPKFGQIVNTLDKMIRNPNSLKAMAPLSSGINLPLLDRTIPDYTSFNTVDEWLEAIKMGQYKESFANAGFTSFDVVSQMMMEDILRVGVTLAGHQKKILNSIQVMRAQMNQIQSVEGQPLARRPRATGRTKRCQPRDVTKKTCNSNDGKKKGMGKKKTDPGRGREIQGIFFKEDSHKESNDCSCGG

[3] = biological target: T3, Dual specificity mitogen-activated protein kinase kinase 3 (Homo sapiens, UniProt P46734)
T3 sequence (P46734 whole entry): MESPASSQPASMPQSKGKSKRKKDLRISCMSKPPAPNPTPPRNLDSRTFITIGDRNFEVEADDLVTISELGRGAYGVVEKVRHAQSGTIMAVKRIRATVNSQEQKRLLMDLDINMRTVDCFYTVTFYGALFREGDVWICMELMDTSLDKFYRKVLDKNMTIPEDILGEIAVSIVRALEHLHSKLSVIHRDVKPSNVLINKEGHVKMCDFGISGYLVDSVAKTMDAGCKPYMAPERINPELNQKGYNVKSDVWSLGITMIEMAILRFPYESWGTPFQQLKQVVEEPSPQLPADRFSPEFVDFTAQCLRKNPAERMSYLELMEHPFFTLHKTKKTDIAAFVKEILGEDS

[4] = biological target: Fibroblast growth factor receptor 1 (Homo sapiens, UniProt P11362)
Focal adhesion kinase 1 = Focal adhesion kinase 1 (Homo sapiens, UniProt Q05397)
[5] = biological target: Cyclin-dependent kinase 1 (Homo sapiens, UniProt P06493)
[6] = biological target: cAMP-dependent protein kinase catalytic subunit alpha (Homo sapiens, UniProt P17612)
[7] = biological target: T4, cGMP-dependent protein kinase 1 (Homo sapiens, UniProt Q13976)
T4 sequence (Q13976 whole entry): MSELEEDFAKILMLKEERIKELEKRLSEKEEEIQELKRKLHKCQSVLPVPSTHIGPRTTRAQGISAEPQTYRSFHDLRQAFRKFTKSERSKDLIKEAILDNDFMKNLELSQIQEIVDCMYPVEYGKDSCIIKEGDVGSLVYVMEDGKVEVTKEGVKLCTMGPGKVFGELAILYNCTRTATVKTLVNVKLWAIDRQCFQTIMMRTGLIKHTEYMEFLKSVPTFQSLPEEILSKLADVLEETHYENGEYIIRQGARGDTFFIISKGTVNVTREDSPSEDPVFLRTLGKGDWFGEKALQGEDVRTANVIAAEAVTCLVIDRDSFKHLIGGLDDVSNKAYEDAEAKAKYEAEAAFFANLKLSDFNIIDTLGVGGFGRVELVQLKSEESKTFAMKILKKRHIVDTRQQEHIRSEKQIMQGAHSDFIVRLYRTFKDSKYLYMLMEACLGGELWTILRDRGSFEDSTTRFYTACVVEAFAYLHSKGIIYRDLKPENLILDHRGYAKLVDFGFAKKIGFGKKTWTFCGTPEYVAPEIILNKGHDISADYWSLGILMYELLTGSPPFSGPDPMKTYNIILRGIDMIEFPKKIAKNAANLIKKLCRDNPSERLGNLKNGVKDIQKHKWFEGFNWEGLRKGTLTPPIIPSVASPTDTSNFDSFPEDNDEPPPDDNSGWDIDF

[8] = biological target: Tyrosine-protein kinase ABL1 (Homo sapiens, UniProt P00519)
[9] = biological target: U5 small nuclear ribonucleoprotein 200 kDa helicase (Homo sapiens, UniProt O75643)
[10] = biological target: Mitogen-activated protein kinase 11 (Homo sapiens, UniProt Q15759)
Further: in the data inactive means no Kd found up to 30 µM.

Cyclin-dependent kinase 4, sequence (P11802 whole entry): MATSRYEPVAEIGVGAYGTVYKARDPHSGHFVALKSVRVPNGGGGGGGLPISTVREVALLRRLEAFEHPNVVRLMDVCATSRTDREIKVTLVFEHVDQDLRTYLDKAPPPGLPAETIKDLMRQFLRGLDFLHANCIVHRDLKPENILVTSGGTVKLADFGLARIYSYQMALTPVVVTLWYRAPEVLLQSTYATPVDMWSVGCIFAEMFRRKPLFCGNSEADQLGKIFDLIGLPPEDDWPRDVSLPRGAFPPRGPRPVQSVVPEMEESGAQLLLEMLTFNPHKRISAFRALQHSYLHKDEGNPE
Cyclin-dependent kinase 1, sequence (P06493 whole entry): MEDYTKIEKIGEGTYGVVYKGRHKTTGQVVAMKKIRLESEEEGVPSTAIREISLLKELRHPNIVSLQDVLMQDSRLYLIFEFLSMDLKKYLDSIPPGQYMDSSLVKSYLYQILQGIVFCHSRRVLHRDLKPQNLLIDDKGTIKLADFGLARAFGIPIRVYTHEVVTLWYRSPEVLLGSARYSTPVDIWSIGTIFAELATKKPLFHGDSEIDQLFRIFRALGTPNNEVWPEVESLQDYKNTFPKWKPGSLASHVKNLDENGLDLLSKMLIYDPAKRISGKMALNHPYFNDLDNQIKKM
Mitogen-activated protein kinase 11, sequence (Q15759 whole entry): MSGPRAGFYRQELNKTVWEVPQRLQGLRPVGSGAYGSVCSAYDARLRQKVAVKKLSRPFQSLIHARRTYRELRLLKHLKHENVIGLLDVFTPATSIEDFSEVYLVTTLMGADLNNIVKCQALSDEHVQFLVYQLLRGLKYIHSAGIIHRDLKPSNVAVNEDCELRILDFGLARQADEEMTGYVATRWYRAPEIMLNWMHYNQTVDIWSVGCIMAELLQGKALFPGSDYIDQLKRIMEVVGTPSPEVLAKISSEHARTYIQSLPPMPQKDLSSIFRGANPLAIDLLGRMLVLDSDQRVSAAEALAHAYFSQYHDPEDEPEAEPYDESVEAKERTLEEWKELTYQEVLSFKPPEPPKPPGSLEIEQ
U5 small nuclear ribonucleoprotein 200 kDa helicase, sequence (O75643 whole entry): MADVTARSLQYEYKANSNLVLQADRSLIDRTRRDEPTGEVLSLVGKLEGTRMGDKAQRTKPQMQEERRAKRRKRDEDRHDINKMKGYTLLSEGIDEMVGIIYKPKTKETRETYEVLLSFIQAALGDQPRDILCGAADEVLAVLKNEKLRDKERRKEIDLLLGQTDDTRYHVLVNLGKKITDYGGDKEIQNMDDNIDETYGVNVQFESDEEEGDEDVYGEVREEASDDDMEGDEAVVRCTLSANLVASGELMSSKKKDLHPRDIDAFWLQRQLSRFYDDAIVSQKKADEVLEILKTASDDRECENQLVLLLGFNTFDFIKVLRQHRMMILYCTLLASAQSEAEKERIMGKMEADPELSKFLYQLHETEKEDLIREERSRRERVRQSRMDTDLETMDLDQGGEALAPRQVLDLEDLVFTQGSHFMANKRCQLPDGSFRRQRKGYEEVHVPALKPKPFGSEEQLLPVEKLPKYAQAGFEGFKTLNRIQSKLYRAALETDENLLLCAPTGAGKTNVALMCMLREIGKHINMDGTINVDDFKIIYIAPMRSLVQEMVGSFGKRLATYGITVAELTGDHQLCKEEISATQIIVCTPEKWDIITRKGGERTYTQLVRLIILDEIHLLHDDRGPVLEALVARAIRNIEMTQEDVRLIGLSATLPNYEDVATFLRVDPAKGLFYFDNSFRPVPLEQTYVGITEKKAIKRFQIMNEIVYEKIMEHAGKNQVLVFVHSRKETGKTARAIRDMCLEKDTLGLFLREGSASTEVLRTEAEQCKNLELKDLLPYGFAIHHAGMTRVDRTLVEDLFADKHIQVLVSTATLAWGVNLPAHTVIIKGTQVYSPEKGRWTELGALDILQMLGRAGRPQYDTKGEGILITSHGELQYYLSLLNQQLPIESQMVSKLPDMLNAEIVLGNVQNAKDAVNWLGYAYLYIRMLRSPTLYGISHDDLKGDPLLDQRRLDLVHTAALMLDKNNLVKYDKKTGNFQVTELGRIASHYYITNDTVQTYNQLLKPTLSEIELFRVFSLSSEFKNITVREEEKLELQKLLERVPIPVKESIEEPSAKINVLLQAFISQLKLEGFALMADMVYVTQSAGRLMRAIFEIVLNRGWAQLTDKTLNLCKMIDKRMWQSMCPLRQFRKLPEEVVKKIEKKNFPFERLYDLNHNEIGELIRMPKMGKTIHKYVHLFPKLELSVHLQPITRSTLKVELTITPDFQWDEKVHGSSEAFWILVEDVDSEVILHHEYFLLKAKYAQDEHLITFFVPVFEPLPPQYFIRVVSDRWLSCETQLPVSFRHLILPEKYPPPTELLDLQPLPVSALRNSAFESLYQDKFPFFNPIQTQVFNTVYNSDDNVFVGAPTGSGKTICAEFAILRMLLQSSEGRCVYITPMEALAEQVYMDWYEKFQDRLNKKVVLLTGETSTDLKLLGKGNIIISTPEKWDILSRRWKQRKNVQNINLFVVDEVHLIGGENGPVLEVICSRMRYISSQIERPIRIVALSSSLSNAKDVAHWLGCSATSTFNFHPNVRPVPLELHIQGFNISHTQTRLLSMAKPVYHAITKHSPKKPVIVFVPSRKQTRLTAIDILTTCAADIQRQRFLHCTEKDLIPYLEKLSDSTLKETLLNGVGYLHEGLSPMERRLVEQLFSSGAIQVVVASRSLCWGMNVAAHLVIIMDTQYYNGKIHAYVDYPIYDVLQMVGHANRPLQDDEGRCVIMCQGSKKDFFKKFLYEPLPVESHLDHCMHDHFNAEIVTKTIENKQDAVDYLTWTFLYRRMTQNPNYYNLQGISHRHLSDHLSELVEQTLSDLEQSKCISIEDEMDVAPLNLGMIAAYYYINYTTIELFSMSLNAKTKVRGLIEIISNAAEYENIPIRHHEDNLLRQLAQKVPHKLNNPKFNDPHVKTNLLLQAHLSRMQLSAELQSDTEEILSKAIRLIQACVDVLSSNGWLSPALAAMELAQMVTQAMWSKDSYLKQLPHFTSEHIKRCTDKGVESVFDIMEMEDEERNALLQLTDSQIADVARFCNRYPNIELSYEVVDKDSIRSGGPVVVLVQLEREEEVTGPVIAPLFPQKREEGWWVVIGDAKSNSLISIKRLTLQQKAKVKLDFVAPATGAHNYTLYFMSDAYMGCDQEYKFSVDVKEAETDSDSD
Tyrosine-protein kinase ABL1, sequence (P00519 whole entry): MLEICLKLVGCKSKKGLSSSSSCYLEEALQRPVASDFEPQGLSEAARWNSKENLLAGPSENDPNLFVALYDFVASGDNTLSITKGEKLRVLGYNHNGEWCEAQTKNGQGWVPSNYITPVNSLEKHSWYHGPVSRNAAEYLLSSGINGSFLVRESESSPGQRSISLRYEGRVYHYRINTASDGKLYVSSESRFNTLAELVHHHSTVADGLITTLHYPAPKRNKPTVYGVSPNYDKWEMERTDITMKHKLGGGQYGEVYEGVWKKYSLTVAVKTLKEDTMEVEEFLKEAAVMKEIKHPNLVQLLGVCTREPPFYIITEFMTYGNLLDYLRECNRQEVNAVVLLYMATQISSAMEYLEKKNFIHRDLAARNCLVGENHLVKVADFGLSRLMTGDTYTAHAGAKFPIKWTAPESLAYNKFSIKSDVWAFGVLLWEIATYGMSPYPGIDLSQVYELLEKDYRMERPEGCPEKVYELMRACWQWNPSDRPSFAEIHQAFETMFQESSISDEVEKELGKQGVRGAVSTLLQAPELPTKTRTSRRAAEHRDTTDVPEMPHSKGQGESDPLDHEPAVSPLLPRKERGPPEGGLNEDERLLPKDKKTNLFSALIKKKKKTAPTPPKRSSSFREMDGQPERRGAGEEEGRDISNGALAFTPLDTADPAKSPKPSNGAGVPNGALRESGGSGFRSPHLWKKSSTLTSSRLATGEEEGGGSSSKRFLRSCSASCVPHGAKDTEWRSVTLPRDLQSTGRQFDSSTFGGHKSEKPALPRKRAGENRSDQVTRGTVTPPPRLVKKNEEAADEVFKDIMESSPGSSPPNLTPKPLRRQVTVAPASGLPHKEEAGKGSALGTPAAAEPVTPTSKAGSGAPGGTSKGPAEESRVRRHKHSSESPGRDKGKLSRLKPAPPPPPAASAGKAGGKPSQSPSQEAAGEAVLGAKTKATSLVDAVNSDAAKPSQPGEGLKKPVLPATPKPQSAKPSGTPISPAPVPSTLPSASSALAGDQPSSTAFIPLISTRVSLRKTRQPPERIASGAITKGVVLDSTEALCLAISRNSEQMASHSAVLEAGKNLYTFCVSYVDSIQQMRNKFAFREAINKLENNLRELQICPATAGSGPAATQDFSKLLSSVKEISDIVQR
Fibroblast growth factor receptor 1, sequence (P11362 whole entry): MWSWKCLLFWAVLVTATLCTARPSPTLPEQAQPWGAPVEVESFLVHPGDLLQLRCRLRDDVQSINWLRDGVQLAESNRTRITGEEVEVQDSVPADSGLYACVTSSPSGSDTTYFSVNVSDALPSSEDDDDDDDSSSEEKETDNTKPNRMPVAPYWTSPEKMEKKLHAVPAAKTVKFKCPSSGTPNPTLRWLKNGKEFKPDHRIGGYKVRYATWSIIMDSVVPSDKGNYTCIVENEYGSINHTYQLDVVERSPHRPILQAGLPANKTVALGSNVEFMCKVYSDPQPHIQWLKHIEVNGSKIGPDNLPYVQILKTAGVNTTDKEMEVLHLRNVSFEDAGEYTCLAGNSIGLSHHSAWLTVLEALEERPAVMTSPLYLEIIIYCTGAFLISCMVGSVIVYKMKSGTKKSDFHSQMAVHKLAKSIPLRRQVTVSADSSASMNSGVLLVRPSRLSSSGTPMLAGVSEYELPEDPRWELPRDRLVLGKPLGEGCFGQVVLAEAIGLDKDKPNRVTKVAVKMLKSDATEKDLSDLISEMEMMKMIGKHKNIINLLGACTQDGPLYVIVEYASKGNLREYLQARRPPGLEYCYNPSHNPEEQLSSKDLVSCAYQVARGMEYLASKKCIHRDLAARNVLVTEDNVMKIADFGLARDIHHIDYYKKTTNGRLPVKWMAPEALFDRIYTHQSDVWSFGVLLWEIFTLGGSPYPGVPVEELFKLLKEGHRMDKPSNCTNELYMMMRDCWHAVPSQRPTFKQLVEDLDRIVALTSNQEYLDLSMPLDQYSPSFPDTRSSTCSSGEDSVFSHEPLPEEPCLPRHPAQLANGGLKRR

Structure (SMILES)	Kd [1]	Kd [2]	Kd (Ephrin type-B receptor 2)	Kd [3]	Kd [4]	Kd (Focal adhesion kinase 1)	Kd [5]	Kd [6]	Kd [7]	Kd [8]	Kd [9]	Kd [10]
Cc1nc(Nc2n[nH]c3c2CN(C(=O)N[C@H](CN(C)C)c2ccccc2)C3(C)C)c2sccc2n1 [PF-03758309]	> 30 µM (inactive)	0.434 µM (active)	> 30 µM (inactive)	> 30 µM (inactive)	0.208 µM (active)	> 30 µM (inactive)	> 30 µM (inactive)	0.935 µM (active)	0.808 µM (active)	> 30 µM (inactive)	> 30 µM (inactive)	> 30 µM (inactive)
COc1cc([C@@H]2c3cc4c(cc3[C@H](O)[C@H]3COC(=O)[C@@H]23)OCO4)cc(OC)c1OC [AXL-1717]	> 30 µM (inactive)	> 30 µM (inactive)	> 30 µM (inactive)	> 30 µM (inactive)	> 30 µM (inactive)	> 30 µM (inactive)	> 30 µM (inactive)	> 30 µM (inactive)	> 30 µM (inactive)	> 30 µM (inactive)	> 30 µM (inactive)	> 30 µM (inactive)
COCc1c(-c2ccc(NC(=O)Nc3cc(C(F)(F)F)ccc3F)c(F)c2)c2c(N)ncnn2c1CN1CCOCC1	> 30 µM (inactive)	> 30 µM (inactive)	> 30 µM (inactive)	> 30 µM (inactive)	0.04 µM (active)	> 30 µM (inactive)	> 30 µM (inactive)	> 30 µM (inactive)	> 30 µM (inactive)	> 30 µM (inactive)	> 30 µM (inactive)	> 30 µM (inactive)
Nc1ncnc2c1c(-c1cccc(OCc3ccccc3)c1)cn2[C@H]1C[C@@H](CN2CCC2)C1 [AEW-541]	> 30 µM (inactive)	> 30 µM (inactive)	> 30 µM (inactive)	> 30 µM (inactive)	> 30 µM (inactive)	> 30 µM (inactive)	> 30 µM (inactive)	> 30 µM (inactive)	> 30 µM (inactive)	> 30 µM (inactive)	> 30 µM (inactive)	> 30 µM (inactive)
C=CC(=O)N1CCC[C@H](n2c(=O)n(-c3ccc(Oc4ccccc4)cc3)c3c(N)ncnc32)C1	> 30 µM (inactive)	> 30 µM (inactive)	> 30 µM (inactive)	> 30 µM (inactive)	> 30 µM (inactive)	> 30 µM (inactive)	> 30 µM (inactive)	> 30 µM (inactive)	> 30 µM (inactive)	> 30 µM (inactive)	> 30 µM (inactive)	> 30 µM (inactive)
COc1ccc(S(=O)(=O)N(C(C)=O)c2ccccc2/C=C/c2cc[n+]([O-])cc2)cc1 [HMN-214]	> 30 µM (inactive)	> 30 µM (inactive)	> 30 µM (inactive)	> 30 µM (inactive)	> 30 µM (inactive)	> 30 µM (inactive)	> 30 µM (inactive)	> 30 µM (inactive)	> 30 µM (inactive)	> 30 µM (inactive)	> 30 µM (inactive)	> 30 µM (inactive)
COc1cc2c(Nc3ccc(Cl)c(Cl)c3F)ncnc2cc1OC[C@@H]1C[C@@H]2CN(C)C[C@@H]2C1 [TESEVATINIB]	> 30 µM (inactive)	> 30 µM (inactive)	0.448 µM (active)	> 30 µM (inactive)	> 30 µM (inactive)	> 30 µM (inactive)	> 30 µM (inactive)	> 30 µM (inactive)	> 30 µM (inactive)	0.921 µM (active)	> 30 µM (inactive)	> 30 µM (inactive)
CO[C@H]1C[C@@H]2CC[C@@H](C)[C@@](O)(O2)C(=O)C(=O)N2CCCC[C@H]2C(=O)O[C@H]([C@H](C)C[C@@H]2CC[C@@H](OC(=O)C(C)(CO)CO)[C@H](OC)C2)CC(=O)[C@H](C)/C=C(\C)[C@@H](O)[C@@H](OC)C(=O)[C@H](C)C[C@H](C)/C=C/C=C/C=C/1C [TEMSIROLIMUS]	> 30 µM (inactive)	> 30 µM (inactive)	> 30 µM (inactive)	> 30 µM (inactive)	> 30 µM (inactive)	> 30 µM (inactive)	> 30 µM (inactive)	> 30 µM (inactive)	> 30 µM (inactive)	> 30 µM (inactive)	> 30 µM (inactive)	> 30 µM (inactive)
Cn1cnc2c(F)c(Nc3ccc(Br)cc3F)c(C(=O)NOCCO)cc21 [BINIMETINIB]	> 30 µM (inactive)	> 30 µM (inactive)	> 30 µM (inactive)	> 30 µM (inactive)	> 30 µM (inactive)	> 30 µM (inactive)	> 30 µM (inactive)	> 30 µM (inactive)	> 30 µM (inactive)	> 30 µM (inactive)	> 30 µM (inactive)	> 30 µM (inactive)
COc1c(OCCCN2CCOCC2)ccc2c1N=C(NC(=O)c1cnc(N)nc1)N1CCN=C21 [COPANLISIB]	> 30 µM (inactive)	> 30 µM (inactive)	> 30 µM (inactive)	> 30 µM (inactive)	> 30 µM (inactive)	> 30 µM (inactive)	> 30 µM (inactive)	> 30 µM (inactive)	> 30 µM (inactive)	> 30 µM (inactive)	> 30 µM (inactive)	> 30 µM (inactive)
O=c1[nH]ccc2cc(OC3CCNCC3)ccc12 [SAR-407899 FREE BASE]	> 30 µM (inactive)	> 30 µM (inactive)	> 30 µM (inactive)	> 30 µM (inactive)	> 30 µM (inactive)	> 30 µM (inactive)	> 30 µM (inactive)	0.013 µM	0.004 µM	> 30 µM (inactive)	> 30 µM (inactive)	> 30 µM (inactive)
